Laboratory results from patent US20240279232A1, “USE OF SUBSTITUTED 5-(4-METHYL-6-PHENYL-4H-BENZO[F]IMIDAZO[1,5-A][1,4] DIAZEPIN-3-YL)-1,2,4-O[…] THE TREATMENT OF INFLAMMATORY CONDITIONS” (priority 2021, published 2024).

Key:
RAW macrophages = experiment: Cell viability (CellTiter-Glo), RAW macrophages; assay type: cell-based, mouse; settings: for Cell viability (%) RAW macrophages 50 μM: CellTiter-Glo; for toxicity at 50 μM (in words): macrophages
HEK293 = experiment: Viability assay (CellTiter-Glo), HEK293; assay type: cell-based, human; settings: for Cell viability (%) HEK293 120 μM: CellTiter-Glo; for toxicity at 120 μM (in words): HEK293, 120 μM
Mouse microglia [1] = experiment: Cell viability (CellTiter-Glo), mouse microglia; assay type: cell-based; settings: 50 μM; for Cell viability (%) Mouse microglia 50 μM: CellTiter-Glo; for toxicity at 50 μM (in words): microglia
Summary of the method: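 Mouse microglia (1×10^6 cells/mL) activated with 50 ng/ml LPS plus 150 U/mL IFNγ, incubated with compounds ~24 h at 37° C. Viability of remaining cells read by CellTiter-Glo luminescence after supernatant removal for Griess NO assay; […].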

Mouse microglia [2] = experiment: NO production (Griess assay), LPS/IFNγ-activated mouse microglia; assay type: cell-based; settings: for inhibition at 10 µM / inhibition at 50 µM: Mus musculus, Microglia, 24 h
[3] = system: BZR (benzodiazepine site of GABAAR); experiment: GABAAR/BZR binding, rat brain homogenate with 3H-flunitrazepam; settings: for BZR %: Percent inhibition at 10,000 nM
Summary of the method: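 Rat brain homogenate incubated with 3H-flunitrazepam near its Kd, typically 90 min at room temperature in the dark; nonspecific binding defined with 10 μM reference compound. Filtration on PEI-soaked mats, scintillation counting; compounds screened at 10,000 nM, those above 50% displacement taken to concentration–response for Ki by nonlinear regression (n=6).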

Swiss Webster mice = experiment: Rotarod test; settings: for sensorimotor deficits on the rotarod: p.o. at 4-fold the effective dose in the formalin test
[4] = rat brain homogenate, 3H-flunitrazepam

Row | SMILES | Cell viability (%) RAW macrophages 50 μM (RAW macrophages) [%] | Cell viability (%) HEK293 120 μM (HEK293) [%] | toxicity at 120 μM (in words) (HEK293) | Cell viability (%) Mouse microglia 50 μM (Mouse microglia [1]) [%] | inhibition at 10 µM (Mouse microglia [2]) [%] | inhibition at 50 µM (Mouse microglia [2]) [%] | BZR % [3, 4] [%] | Ki [3, 4] [nM] | toxicity at 50 μM (in words) (RAW macrophages) | sensorimotor deficits on the rotarod (Swiss Webster mice) | toxicity at 50 μM (in words) (Mouse microglia [1]) | NO production of activated microglia (in words) (Mouse microglia [2]; dexamethasone 100 nM, GABA 1 μM, MP-IV-010 50 μM, GL-II-33 in the library screen) | Percent Competition BZP Rat Brain Site ([3]; PDSP primary screening) [%] | IC50 ([3]; rat brain homogenate, 3H-flunitrazepam, read-out: affinity for the benzodiazepine site of GABAARs (IC50)) [nM] | ability of mice to balance on a rotating rod for three minutes (Swiss Webster mice; intraperitoneal, 10 and 40 mg/kg)
1 | Cc1noc(-c2ncn3c2[C@@H](C)N=C(c2ccccc2F)c2cc(C4CC4)ccc2-3)n1 [GL-III-63, (R)-5-(8-Cyclopropyl-6-(2-fluorophenyl)-4-methyl-4H-benzo[f]imidazo[1,5-a][1,4]diazepin-3-yl)-3-methyl-1,2,4-oxadiazole] | 87 ± 15 | 18 ± 4 | toxic | 100 ± 8 | 25 ± 4 | 89 ± 12 | 28 |  |  |  |  |  |  |  | 
2 | C[C@H]1N=C(c2ccccn2)c2cc(Br)ccc2-n2cnc(C(=O)O)c21 [GL-II-51] | 100 ± 3 | 91 ± 4 |  | 95 ± 2 | 9 ± 4 |  | 84 | 181 |  |  |  |  |  |  | 
3 | Cc1noc(-c2ncn3c2[C@@H](C)N=C(c2ccccc2F)c2cc(Br)ccc2-3)n1 [GL-III-60, (R)-5-(8-Bromo-6-(2-fluorophenyl)-4-methyl-4H-benzo[f]imidazo[1,5-a][1,4]diazepin-3-yl)-3-methyl-1,2,4-oxadiazole] | 86 ± 12 | 64 ± 6 |  | 100 ± 9 | 55 ± 8 | 68 ± 8 | 100 | 784 |  |  |  |  |  |  | 
4 | C#Cc1ccc2c(c1)C(c1ccccc1F)=N[C@H](C)c1c(-c3nc(C(C)C)no3)ncn1-2 [MP-IV-010, (R)-5-(8-ethynyl-6-(2-fluorophenyl)-4-methyl-4H-benzo[f]imidazo[1,5-a][1,4]diazepin-3-yl)-3-isopropyl-1,2,4-oxadiazole] | 81 ± 10 | 41 ± 4 | some cytotoxicity | 91 ± 10 | 66 ± 13 | 96 ± 13 | 64 | 814 | no significant toxicity | did not cause any sensorimotor deficits | no significant toxicity | significant reduction | 64 | 2500 | 
5 | CCOC(=O)c1ncn2c1[C@@H](C)N=C(c1ccccc1F)c1cc(C3CC3)ccc1-2 [GL-III-42] | 100 ± 6 | 62 ± 11 |  | 82 ± 10 | 55 ± 12 |  | 62 | 726 |  |  |  |  |  |  | 
6 | C#Cc1ccc2c(c1)C(c1ccccc1F)=N[C@@H](C)c1c(-c3cnco3)ncn1-2 [GL-III-78] | 97 ± 2 | 56 ± 8 |  | 79 ± 6 | 39 ± 5 |  | 101 | 26 |  |  |  |  |  |  | 
7 | C[C@H]1N=C(c2ccccc2F)c2cc(Cl)ccc2-n2cnc(C(=O)O)c21 [GL-III-54] | 99 ± 12 | 96 ± 12 |  | 82 ± 6 | 31 ± 9 |  | 100 | 42 |  |  |  |  |  |  | 
8 | C#Cc1ccc2c(c1)C(c1ccccc1F)=N[C@H](C)c1c(C(=O)NC)ncn1-2 [MP-III-022] | 100 ± 11 | 75 ± 13 |  | 86 ± 2 | 36 ± 6 | 60 ± 12 | 95 | 83 |  |  |  |  |  |  | 
9 | C[C@H]1N=C(c2ccccc2F)c2cc(Br)ccc2-n2cnc(-c3cnco3)c21 [GL-III-36] | 81 ± 5 | 80 ± 9 |  | 97 ± 9 | 8 ± 5 | 41 ± 7 | 86 | 319 |  |  |  |  |  |  | 
10 | C[C@@H]1N=C(c2ccccc2F)c2cc(Br)ccc2-n2cnc(-c3cnco3)c21 [GL-III-76] | 100 ± 5 | 59 ± 4 |  | 80 ± 2 | 34 ± 1 |  | 100 | 120 |  |  |  |  |  |  | 
11 | C#Cc1ccc2c(c1)C(c1ccccc1F)=N[C@H](C)c1c(-c3cnco3)ncn1-2 [GL-III-73] | 100 ± 4 | 86 ± 6 |  | 80 ± 9 | 40 ± 3 |  | 65 | 602 |  |  |  |  |  |  | 
12 | C[C@H]1N=C(c2ccccc2F)c2cc(C3CC3)ccc2-n2cnc(C(=O)N(C)C)c21 [GL-III-70] | 100 ± 2 | 86 ± 12 |  | 86 ± 2 | 32 ± 4 |  | 100 | 3400 |  |  |  |  |  |  | 
13 | C#Cc1ccc2c(c1)C(c1ccccc1F)=N[C@H](C)c1c(-c3nc(C)no3)ncn1-2 [MP-IV-004] | 83 ± 12 | 40 ± 8 |  | 100 ± 5 | 34 ± 5 | 60 ± 6 | 63 | 1080 |  |  |  |  |  |  | 
14 | C#Cc1ccc2c(c1)C(c1ccccc1F)=N[C@H](C)c1c(C(=O)NC(C)C)ncn1-2 [GL-III-66] | 100 ± 9 | 46 ± 4 |  | 85 ± 15 | 13 ± 2 |  | 88 | 271 |  |  |  |  |  |  | 
15 | C[C@H]1N=C(c2ccccc2F)c2cc(Br)ccc2-n2cnc(C(=O)N(C)C)c21 [GL-III-69] | 98 ± 10 | 73 ± 10 |  | 87 ± 6 | 37 ± 6 |  | 100 | 446 |  |  |  |  |  |  | 
16 | CCc1noc(-c2ncn3c2[C@@H](C)N=C(c2ccccc2F)c2cc(C4CC4)ccc2-3)n1 [GL-IV-03, (R)-5-(8-Cyclopropyl-6-(2-fluorophenyl)-4-methyl-4H-benzo[f]imidazo[1,5-a][1,4]diazepin-3-yl)-3-ethyl-1,2,4-oxadiazole] | 97 ± 7 | 47 ± 5 | some cytotoxicity | 100 ± 5 | 90 |  | 65 |  | no significant toxicity | did not cause any sensorimotor deficits | no significant toxicity |  |  |  | did not influence the ability of mice to balance
17 | CCNC(=O)c1ncn2c1[C@@H](C)N=C(c1ccccc1F)c1cc(C3CC3)ccc1-2 [GL-III-68] | 100 ± 8 | 56 ± 11 |  | 83 ± 3 | 24 ± 5 |  | 100 | 452 |  |  |  |  |  |  | 
18 | CCOC(=O)c1ncn2c1[C@@H](C)N=C(c1ccccn1)c1cc(Br)ccc1-2 [GL-II-06] | 100 ± 10 | 83 ± 13 |  | 87 ± 13 | 14 ± 3 |  | 81 | 556 |  |  |  |  |  |  | 
